Measured values taken from US20250230172A1 (Vanqua Bio, Inc., priority 2021, published 2025).

Target: T1, GCase (Homo sapiens, UniProt P04062)
T1 construct: endogenous in cells; host or cells: HeLa cells
T1 sequence (P04062 40-536): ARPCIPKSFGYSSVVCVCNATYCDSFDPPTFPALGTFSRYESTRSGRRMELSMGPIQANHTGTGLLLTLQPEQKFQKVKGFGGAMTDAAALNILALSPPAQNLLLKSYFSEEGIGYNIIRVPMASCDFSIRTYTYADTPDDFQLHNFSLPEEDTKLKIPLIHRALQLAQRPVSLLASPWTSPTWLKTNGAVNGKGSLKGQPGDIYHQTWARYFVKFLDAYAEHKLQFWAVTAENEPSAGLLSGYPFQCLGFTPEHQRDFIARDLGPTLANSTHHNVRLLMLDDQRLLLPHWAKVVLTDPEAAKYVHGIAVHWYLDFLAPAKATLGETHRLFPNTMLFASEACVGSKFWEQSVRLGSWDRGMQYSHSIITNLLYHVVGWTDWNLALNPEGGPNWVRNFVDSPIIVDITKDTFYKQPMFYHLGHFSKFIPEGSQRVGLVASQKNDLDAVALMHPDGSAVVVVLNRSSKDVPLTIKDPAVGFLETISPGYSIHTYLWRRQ
Experiment: live cell PFB assay in HELA cells for activation of GCase
Format: cell-based
Experimental: Exemplary compounds were evaluated for activation of GCase in a live cell PFB assay in HELA cells (essentially as described in Ysselstein et al., “LRRK2 kinase activity regulates lysosomal glucocerebrosidase in neurons derived from Parkinson's disease patients” Nature Communications (2019) 10:5570). […] EC50 ranges: A: <10 μM; B: >10-50 μM; C: >50-100 μM; D: >100 μM.

Compound | EC50 [µM]
FC(F)Cn1ncc2ncc(NC3C[C@@H]4CN(c5ncccc5C(F)(F)F)C[C@@H]4C3)nc21 (stereo partly drawn) [Compound 41, (3aR,5S,6aS)—N-[1-(2,2-difluoroethyl)-1H-pyrazolo[3,4-b]pyrazin-6-yl]-2-[3-(trifluoromethyl)pyridin-2-yl]-octahydrocyclopenta[c]pyrrol-5-amine] | > 100
FC(F)Cn1ncc2ncc(N[C@H]3C[C@@H]4CN(c5ccc(C(F)(F)F)nc5)C[C@@H]4C3)nc21 [Compound 42, (3aR,5S,6aS)—N-[1-(2,2-difluoroethyl)-1H-pyrazolo[3,4-b]pyrazin-6-yl]-2-[6-(trifluoromethyl)pyridin-3-yl]-octahydrocyclopenta[c]pyrrol-5-amine] | 10 to 50
FC(F)Cn1ncc2ncc(N[C@@H]3C[C@@H]4CN(c5cncc(C(F)(F)F)c5)C[C@@H]4C3)nc21 [Compound 52, (3aR,5S,6aS)—N-[1-(2,2-difluoroethyl)-1H-pyrazolo[3,4-b]pyrazin-6-yl]-2-[5-(trifluoromethyl)pyridin-3-yl]-octahydrocyclopenta[c]pyrrol-5-amine] | < 10
CN(c1cnc2cnn(CC(F)F)c2n1)[C@H]1C[C@@H]2CN(c3cncc(C(F)(F)F)c3)C[C@@H]2C1 [Compound 54, (3aR,5S,6aS)—N-[1-(2,2-difluoroethyl)-1H-pyrazolo[3,4-b]pyrazin-6-yl]-N-methyl-2-[5-(trifluoromethyl)pyridin-3-yl]-octahydrocyclopenta[c]pyrrol-5-amine] | 10 to 50
FC(F)Cn1ncc2ncc(-n3cc4c(n3)CCN(c3ncccc3C(F)(F)F)C4)nc21 [Compound 63, 1-(2,2-difluoroethyl)-6-(5-(3-(trifluoromethyl)pyridin-2-yl)-4,5,6,7-tetrahydro-2H-pyrazolo[4,3-c]pyridin-2-yl)-1H-pyrazolo[3,4-b]pyrazine] | < 10
FC(F)Cn1ncc2ncc(-n3ncc4c3CCN(c3ncccc3C(F)(F)F)C4)nc21 [Compound 64, 1-(2,2-difluoroethyl)-6-(5-(3-(trifluoromethyl)pyridin-2-yl)-4,5,6,7-tetrahydro-1H-pyrazolo[4,3-c]pyridin-1-yl)-1H-pyrazolo[3,4-b]pyrazine] | 10 to 50
COc1cncc(N2C[C@H]3C[C@H](Nc4cnc5cnn(CC(F)F)c5n4)C[C@H]3C2)n1 [Compound 76, 1-(2,2-difluoroethyl)-N-((3aR,5s,6aS)-2-(6-methoxypyrazin-2-yl)octahydrocyclopenta[c]pyrrol-5-yl)-1H-pyrazolo[3,4-b]pyrazin-6-amine] | 10 to 50
COc1cnc(N2C[C@H]3C[C@H](Nc4cnc5cnn(CC(F)F)c5n4)C[C@H]3C2)cn1 [Compound 77, 1-(2,2-difluoroethyl)-N-((3aR,5s,6aS)-2-(5-methoxypyrazin-2-yl)octahydrocyclopenta[c]pyrrol-5-yl)-1H-pyrazolo[3,4-b]pyrazin-6-amine] | > 100
FC(F)Cn1ncc2ncc(N[C@H]3C[C@@H]4CN(c5cncc(C(F)(F)F)n5)C[C@@H]4C3)nc21 [Compound 78, 1-(2,2-difluoroethyl)-N-((3aR,5s,6aS)-2-(6-(trifluoromethyl)pyrazin-2-yl)octahydrocyclopenta[c]pyrrol-5-yl)-1H-pyrazolo[3,4-b]pyrazin-6-amine] | < 10
FC(F)Cn1ncc2ncc(N[C@H]3C[C@@H]4CN(c5nccnc5C(F)(F)F)C[C@@H]4C3)nc21 [Compound 80, 1-(2,2-difluoroethyl)-N-((3aR,5s,6aS)-2-(3-(trifluoromethyl)pyrazin-2-yl)octahydrocyclopenta[c]pyrrol-5-yl)-1H-pyrazolo[3,4-b]pyrazin-6-amine] | < 10
COc1nccnc1N1C[C@H]2C[C@H](Nc3cnc4cnn(CC(F)F)c4n3)C[C@H]2C1 [Compound 81, 1-(2,2-difluoroethyl)-N-((3aR,5s,6aS)-2-(3-methoxypyrazin-2-yl)octahydrocyclopenta[c]pyrrol-5-yl)-1H-pyrazolo[3,4-b]pyrazin-6-amine] | 10 to 50
FC(F)Cn1ncc2ncc(N[C@H]3C[C@@H]4CN(c5ccc(C(F)(F)F)nn5)C[C@@H]4C3)nc21 [Compound 82, 1-(2,2-difluoroethyl)-N-((3aR,5s,6aS)-2-(6-(trifluoromethyl)pyridazin-3-yl)octahydrocyclopenta[c]pyrrol-5-yl)-1H-pyrazolo[3,4-b]pyrazin-6-amine] | 10 to 50
FC(F)Cn1ncc2ncc(N[C@H]3C[C@@H]4CN(c5nnccc5C(F)(F)F)C[C@@H]4C3)nc21 [Compound 84, 1-(2,2-difluoroethyl)-N-((3aR,5s,6aS)-2-(4-(trifluoromethyl)pyridazin-3-yl)octahydrocyclopenta[c]pyrrol-5-yl)-1H-pyrazolo[3,4-b]pyrazin-6-amine] | > 100

The remaining lines, values ahead:

EC50 [µM] | Compound
< 10 | FC(F)Cn1ncc2ncc(N3C[C@H]4CN(c5cc(C(F)(F)F)ccn5)C[C@H]4C3)nc21 [Compound 43, rac-2-[(3aR,6aS)-5-[1-(2,2-difluoroethyl)-1H-pyrazolo[3,4-b]pyrazin-6-yl]-octahydropyrrolo[3,4-c]pyrrol-2-yl]-4-(trifluoromethyl)pyridine]
> 100 | FC(F)Cn1ncc2ncc(N3C[C@H]4CN(c5cccc(C(F)(F)F)n5)C[C@H]4C3)nc21 [Compound 45, rac-2-[(3aR,6aS)-5-[1-(2,2-difluoroethyl)-1H-pyrazolo[3,4-b]pyrazin-6-yl]-octahydropyrrolo[3,4-c]pyrrol-2-yl]-6-(trifluoromethyl)pyridine]
10 to 50 | FC(F)Cn1ncc2ncc(N3C[C@H]4CN(c5ccc(C(F)(F)F)nc5)C[C@H]4C3)nc21 [Compound 47, rac-5-[(3aR,6aS)-5-[1-(2,2-difluoroethyl)-1H-pyrazolo[3,4-b]pyrazin-6-yl]-octahydropyrrolo[3,4-c]pyrrol-2-yl]-2-(trifluoromethyl)pyridine]
10 to 50 | FC(F)Cn1ncc2ncc(N3C[C@@H]4CN(c5cccnc5C(F)(F)F)C[C@@H]4C3)nc21 [Compound 49, rac-3-[(3aR,6aS)-5-[1-(2,2-difluoroethyl)-1H-pyrazolo[3,4-b]pyrazin-6-yl]-octahydropyrrolo[3,4-c]pyrrol-2-yl]-2-(trifluoromethyl)pyridine]
< 10 | FC(F)Cn1ncc2ncc(N[C@@H]3C[C@@H]4CN(c5ccc(C(F)(F)F)cn5)C[C@@H]4C3)nc21 [Compound 51, (3aR,5S,6aS)—N-[1-(2,2-difluoroethyl)-1H-pyrazolo[3,4-b]pyrazin-6-yl]-2-[5-(trifluoromethyl)pyridin-2-yl]-octahydrocyclopenta[c]pyrrol-5-amine]
< 10 | FC(F)Cn1ncc2ncc(N[C@H]3C[C@@H]4CN(c5cncc(C(F)(F)F)c5)C[C@@H]4C3)nc21 [Compound 53, (3aR,5S,6aS)—N-[1-(2,2-difluoroethyl)-1H-pyrazolo[3,4-b]pyrazin-6-yl]-2-[5-(trifluoromethyl)pyridin-3-yl]-octahydrocyclopenta[c]pyrrol-5-amine]
< 10 | O=C1C2CN(c3cnc4cnn(CC(F)F)c4n3)CCC2CN1c1cccc(C(F)(F)F)n1 (stereo not shown) [Compound 65, 5-(1-(2,2-difluoroethyl)-1H-pyrazolo[3,4-b]pyrazin-6-yl)-2-(6-(trifluoromethyl)pyridin-2-yl)octahydro-3H-pyrrolo[3,4-c]pyridin-3-one]
10 to 50 | O=C1CC2CN(c3cccc(C(F)(F)F)n3)CC2CN1c1cnc2cnn(CC(F)F)c2n1 (stereo not shown) [Compound 66, 5-(1-(2,2-difluoroethyl)-1H-pyrazolo[3,4-b]pyrazin-6-yl)-2-(6-(trifluoromethyl)pyridin-2-yl)octahydro-6H-pyrrolo[3,4-c]pyridin-6-one]
< 10 | O=C1C2CCN(c3cnc4cnn(CC(F)F)c4n3)CC2CN1c1cccc(C(F)(F)F)n1 (stereo not shown) [Compound 67, 5-(1-(2,2-difluoroethyl)-1H-pyrazolo[3,4-b]pyrazin-6-yl)-2-(6-(trifluoromethyl)pyridin-2-yl)octahydro-1H-pyrrolo[3,4-c]pyridin-1-one]
10 to 50 | FC(F)Cn1ncc2ncc(N3CC[C@H]4CN(c5ccc(C(F)(F)F)cn5)C[C@@H]4C3)nc21 [Compound 69, 1-(2,2-difluoroethyl)-6-((3aS,7aR)-2-(5-(trifluoromethyl)pyridin-2-yl)octahydro-5H-pyrrolo[3,4-c]pyridin-5-yl)-1H-pyrazolo[3,4-b]pyrazine]
10 to 50 | FC(F)Cn1ncc2ncc(N[C@H]3C[C@@H]4CN(c5cnc(C(F)(F)F)cn5)C[C@@H]4C3)nc21 [Compound 79, 1-(2,2-difluoroethyl)-N-((3aR,5s,6aS)-2-(5-(trifluoromethyl)pyrazin-2-yl)octahydrocyclopenta[c]pyrrol-5-yl)-1H-pyrazolo[3,4-b]pyrazin-6-amine]
10 to 50 | FC(F)Cn1ncc2ncc(N[C@H]3C[C@@H]4CN(c5cc(C(F)(F)F)cnn5)C[C@@H]4C3)nc21 [Compound 83, 1-(2,2-difluoroethyl)-N-((3aR,5s,6aS)-2-(5-(trifluoromethyl)pyridazin-3-yl)octahydrocyclopenta[c]pyrrol-5-yl)-1H-pyrazolo[3,4-b]pyrazin-6-amine]
